Reference: publication PMC11112094, “MzmL, a novel marine derived N-acyl homoserine lactonase from Mesoflavibacter zeaxanthinifaciens that attenuates Pectobacterium carotovorum subsp. carotovorum virulence” (Frontiers in Microbiology, 2024)

These compounds were tested on T1, MzmL (assay: pH-indicator (bromothymol blue) assay of lactone hydrolysis, OD630, Michaelis-Menten fit). Settings: 2.5 mM MOPS pH 7.1; 25°C in methods, 28°C in table footnote; 5 nM enzyme; read-out: Km (mM)/Mean ± SD.
T1 construct: full-length ORF (304 residues, predicted 16-residue signal peptide MKKLIILLITLSLFVA included in the clone), N-terminal His6 tag kept (pET-28a), E. coli BL21(DE3), Ni-NTA, ~35 kDa
Type: biochemical, Mesoflavibacter zeaxanthinifaciens
From the text: pH-indicator (bromothymol blue) assay of lactone hydrolysis, OD630, Michaelis-Menten fit on MzmL

In order of falling Km:
1. CCCCCC(=O)CC(=O)N[C@H]1CCOC1=O [3-oxo-C8-HSL]  0.46 ± 0.21 mM
2. CCCCCC(=O)N[C@H]1CCOC1=O [C6-HSL]  0.39 ± 0.11 mM
3. CCCCCCCC(=O)CC(=O)N[C@H]1CCOC1=O [3-oxo-C10-HSL]  0.12 ± 0.03 mM
4. CCCC(=O)CC(=O)N[C@H]1CCOC1=O [3-oxo-C6-HSL]  0.08 ± 0.06 mM
5. CCCCCCCCCC(=O)N[C@H]1CCOC1=O [C10-HSL]  0.04 ± 0.01 mM
